Results as given in patent publication US20240201204A1, “Biomarker and Druggable Target of Neurodegeneration” (University Hospitals Cleveland Medical Center, priority 2020, published 2024).

Experiments:
CCL2 = CCL2 expression in cerebral cortex after TBI (qPCR); format: in vivo, mouse; settings: 25 mg/kg salsalate
Method: (§1) Drug preparation and administration: CGP3466B (Sigma-Aldrich, SML1941) was dissolved in DMSO and then diluted in sterile saline. The final working stock was 0.0014 mg/ml for administering the 0.014 mg/kg dose. Intraperitoneal administration of CGP3466B was initiated 15 min or 24 h after injury, and tissues were harvested 6 h (for SNO-GAPDH, SNO-SIRT1 measurement) or 2 weeks (for ac-tau measurement) later, respectively. Salsalate (AdipoGen, AG-CR1-3574) was dissolved in DMSO and then diluted in sterile PBS. The final working stocks were as follows: 2.5 mg/ml (25 mg/kg dose), 1 mg/ml (10 mg/kg dose), 0.5 mg/ml (5 mg/kg dose). Daily intraperitoneal administration of salsalate was initiated 24 hr after injury and continued throughout behavioral testing. P7C3-A20 and FK866 (Sigma-Aldrich, F8557) were first dissolved in 1 vol of DMSO, followed by addition of 4 vol of Kolliphor and vigorously vortexing. The solution was then diluted with 30 vol of filtered 5% dextrose (pH 7.0). EX527 (Selleckchem, S1541) was dissolved in 1% DMSO+30% polyethylene glycol+1% Tween 80. Daily intraperitoneal administration of P7C3-A20 was initiated 24 hr after poly-traumatic brain injury. EX527 (10 mg/kg) was administer once a day and FK866 was treated twice per day, with the first injection given at the same time as P7C3-A20 (20 mg/kg) and the second injection given 6 h later (LoCoco et al., 2017 eLife). […]

tau = test: Tau phosphorylation at S262 after TBI (western blot); format: in vivo, mouse; settings: salsalate treatment after TBI, vs. Sham-Injury
Method: as §1, with “7.0).” for “7.0). EX527 (Selleckchem, S1541) was dissolved in 1% DMSO+30% polyethylene glycol+1% Tween 80. Daily intraperitoneal administration of P7C3-A20 was initiated 24 hr after poly-traumatic brain injury. EX527 (10 mg/kg) was administer once a day and FK866 was treated twice per day, with the first injection given at the same time as P7C3-A20 (20 mg/kg) and the second injection given 6 h later (LoCoco et al., 2017 eLife).”
Western blotting: Western blotting was performed as described previously (Min et al., 2010), with the 9AB antibody against acetylated-tau generated in the Gan laboratory. […] Lysates were centrifuged at 170,000 g at 4° C. for 15 min and at 18,000 g at 4° C. for 10 min, after which protein concentrations of supernatants were measured by bicinchoninic acid assay (Thermo Scientific, A53225). […]

Alzheimer's disease = test: Pharmacoepidemiologic cohort analysis (MarketScan Medicare Supplemental database), incidence of AD; format: in vivo, human
From the text: Because ac-tau has been generally reported in the brains of subjects with AD, we evaluated the relationship between salsalate or diflunisal use and incidence of clinically-diagnosed TBI or AD by analyzing 7.23 million U.S. commercially-insured individuals (MarketScan Medicare Supplemental database). We conducted two cohort analyses to evaluate the predicted association, based on individual level of longitudinal patient data and pharmacoepidemiologic methods, as previously established (Cheng et al., 2018). Thus, our two cohorts included: (1) salsalate vs. a matched aspirin population and (2) diflunisal vs. a matched aspirin population (Table 2). For each comparison, we estimated the un-stratified Kaplan-Meier curves and conducted propensity score (PS) stratified (n strata=10) log-rank tests and a Cox regression model after adjusting age, race, sex, and disease comorbidities (including diabetes, hypertension, and coronary artery disease) using a propensity score-matching method (Methods).
Study cohorts. The IBM® MarketScan® Medicare Supplemental Database is one of the first in the U.S. to profile the healthcare experience of retirees with Medicare supplemental insurance paid by employers. The MarketScan Medicare Supplemental Database provides detailed cost, use and outcomes data for healthcare services performed in both inpatient and outpatient settings. For most of the population, the medical claims are linked to outpatient prescription drug claims and person-level enrollment data through the use of unique patient or enrollee identifiers. […] This feature makes the database a robust tool for pharmacoeconomic and outcomes research and helps provide insight into the drug use and spending patterns of older Americans. In this study, the pharmacoepidemiology study utilized the MarketScan Medicare Claims database from 2012 to 2017. The dataset included individual-level diagnosis codes, procedure codes and pharmacy claim data for 7.23 million patients. Pharmacy prescriptions of salsalate, diflunisal, and aspirin were identified by using RxNorm and National Drug Code (NDC).
Outcome measurement. For a subject, a drug episode is defined as from drug initiation to drug discontinuation. Specifically, drug initiation is defined as the first day of drug supply (i.e. 1st prescription date). Drug discontinuation is defined as the last day of drug supply (i.e. last prescription date+days of supply) and without drug supply for the next 60 days. In another word, gaps of less than 60-day of drug supply were allowed within a drug episode. The drug cohort included the first drug episode for each subject. For the final cohorts, demographic variables including age, race, sex and geographical location were collected. […]

O=C(Oc1ccccc1C(=O)O)c1ccccc1O [salsalate]
TBI-induced increase of CCL2 in cerebral cortex (CCL2): this increase is not attenuated
phosphorylation of tau at S262 in hippocampus (tau): remains significantly decreased in hippocampus
incidence of AD, subgroup analysis (Alzheimer's disease; excluding patients with type 2 diabetes, hypertension, or coronary artery disease, vs. aspirin): associated with decreased incidence of AD
hazard ratio [HR], AD (Alzheimer's disease; vs. PS-matched aspirin cohort, Cox regression model, 6 years of follow-up): 0.57
